Values of other authors in publication PMC10114980, “Triple targeting of mutant EGFR^L858R/T790M, COX-2, and 15-LOX: design and synthesis of novel quinazolinone tethered phenyl urea derivatives for anti-inflammatory and anticancer evaluation” (Journal of Enzyme Inhibition and Medicinal Chemistry, 2023).

Test system: EGFR
Conditions: Figure 2; cited from earlier work

Row | Structure (SMILES) | IC50 [nM]
1 | Cc1cccc(Cl)c1NC(=O)Nc1ccc(-c2nc(NCCN(C)C)c3ccccc3n2)cc1 [I] | 56
2 | O=C(CNc1ccc(Cl)cc1)Cn1c(-c2ccccc2)nc2ccccc2c1=O [G] | 81
